Laboratory results reported in patent US10537567B2, “Kinase inhibitors for treatment of disease” (BioAxone BioSciences, Inc., priority 2017, dated 2020).
“Also recorded” adds a separate entry of the source.

Experiments:
[1] = system: cultured primary cortical neurons; assay: Beta-amyloid and phosphorylated Tau in cortical neurons from 3×-Tg AD mice; assay type: cell-based; settings: 1, 10 or 50 μM, 24 or 48 hours
From the text: Alzheimer's disease is the most common cause of dementia in the population. Pathologic hallmarks of the disease include the presence in the brain of beta-amyloid bearing plaques and neurofibrillary tangles containing hyperphosphorylated microtubule-associated protein Tau. The 3×-Tg AD mouse model was developed to serve as a rodent model for the development of the biochemical hallmarks of human Alzheimer's disease. This mouse strain harbors 3 transgenes encoding mutant Presenilin-1 (PS1), human Swedish mutant Amyloid Precursor Protein (APP-Swe), and mutant P301L-Tau and is obtained from Jackson Laboratories (Bar Harbor, Me.). […] Similarly, Cancino et al (Cancino et al.; Neurobiol. Aging; 2011; 32:1249) identified the role of increased c-Abl kinase activity in transgenic AD model mice to direct increased phosphorylation of Tau.
Whole brain cortices from one day old (P1) 3×-Tg AD mice (Jackson Labs) are dissected and then dissociated using trypsinization and trituration before being cultured under serum free conditions (NeuroBasal Medium plus B27 supplements; Thermo-Fisher) on dishes pre-coated with poly-ornithine and laminin as growth substrate. The cultures are plated in 24 well tissue culture plates, with 100 to 200,000 cells per well at plating. Cultures are maintained for 5 to 7 days, with half-volume medium changes every other day, before testing of inhibitor treatments. […] Protein extracts are prepared in RIPA buffer and protein concentrations in each extract are determined using the Pierce BCA assay (Pierce Biotechnology). Equivalent amounts of protein from each extract are separated on 4-12% polyacrylamide Bis-Tris gels run in MES buffer (Thermo-Fisher). After transferring to PVDF membranes, the Western blots are processed to examine the levels of beta-amyloid precursor protein (βPAPP), the peptide β-amyloid (Aβ), and levels of both phosphorylated and total tau protein.
For these Western blotting experiments, hyperphosphorylated Tau is detected using antibody AT8-phospho-Ser-202/Thr-205 (Pierce Biotechnology, Rockford, Ill.); total phosphorylated and nonphosphorylated tau is detected with Tau5 antibody (Calbiochem, San Diego, Calif.); total PAPP is detected using monoclonal antibody 22C11 (EMD-Millipore) and Aβ peptide levels are detected using monoclonal antibody 6E10 (BioLegend; San Diego, Calif.). The form of Aβ present can be estimated by comparison to purified Aβ 1-40, 1-42 peptides (AnaSpec; Fremont, Calif.) run as standards on companion gels.

[2] = Microbead model of glaucoma in rats; assay type: in vivo, Sprague Dawley rat; settings: ocular treatment vs vehicle-treated eyes
Method: The different markers of RGC dysfunction are examined in a rat model of glaucoma where latex microspheres are injected into the anterior chamber of the eye to block outflow through the TM. In Sprague Dawley rat RGC loss is 20%-30% over a 4-6 weeks period when 20 μL of beads are injected weekly. This severe model is used to start to determine the amount of API in the retina 1 hour after topical installation of the API/latanoprost combination. Rats are topically dosed with API/Latanoprost for a week after microbead injection, a time when IOP is elevated. The right eyes serve as non-glaucomatous controls.
BIII tubulin expression is decreased in RGCs in glaucoma (Soto et al. 2008 J Neurosci. 28(2): p. 548-561). Loss of BIII tubulin is a biomarker of early RGC degeneration. […] BIII tubulin is observed in radial sections, and RGCs identified by labeling with Brin3. For quantitative comparisons, control and treated radial cryostat sections are cut in the same block and mounted on the same slide, and labeled together with BIII isotype-specific antibodies.
ROCK activation is examined in the same microbead model of glaucoma in rats 4 weeks after daily topical dosing in rats with left and right eyes injected with beads. API alone or API+Latanoprost are delivered once daily by 15 μL eye drop instilled into the left eyes (glaucoma/treated) and right eyes left untreated (glaucoma/untreated). […]

[3] = Penetration and distribution in ocular tissues after topical instillation (LC-MS); assay type: in vivo, Sprague Dawley rats; settings: topical 5% solution of BA-1076, 20 minutes
Method: Adult Sprague Dawley rats (Charles River Laboratories) were used for this experiment. […] One g of tissue was homogenized in 1 mL of 1×PBS. Homogenates were precipitated by pipetting 200 μL of homogenate into a tube using aseptically cut off 1000 μL pipette tips to prevent clogging. Samples are further diluted with 100 μL PBS to aid in precipitation. 900 μL of cold methanol was added to each sample and samples were vortexed for 5 to 10 seconds. Samples were placed at 4° C. for 30 to 40 min and then centrifuged at 10,000 g for 15 min at 4° C. The supernatant is collected and stored at −80° C. until analyzed.
For the optic nerve sample, the concentration is shown per length of optic nerve (right y-axis). […] Therefore, drug is available in the retina and optic nerve for treating these tissues affected in glaucoma and other retinal diseases.
In FIG. 14 we examined the ability of metabolite to penetrate the ocular tissues of the eye after topical instillation of a 3% solution of metabolite. In comparison with FIG. 13, that also the metabolite has adequate penetration into ocular and CNS tissue. Of particular note is the penetration in the retina and presence in the optic nerve. All compounds were given topically as eye drops to the eye of adult Sprague Dawley rats. Twenty minutes later the indicated tissues were removed and the parent compound and active metabolite were analyzed by LC/MS.

[4] = system: rat midbrain dopaminergic neurons; assay: MPP+ toxicity in cultured midbrain dopaminergic neurons; assay type: cell-based; settings: 0.25-50 μM, 20 μM MPP+, 48 hours
Method: These in vitro experiments are conducted using primary cultures of embryonic rat midbrain dopaminergic neurons. MPP+ is known to cause the death of cultured midbrain dopaminergic neurons. Rho kinase and Abl kinase inhibitors are tested individually at varying concentrations for their ability to prevent MPP+-induced cell death.
Primary cultures of rat midbrain dopaminergic neurons are established from cells acutely isolated from the ventral midbrain of embryonic day 14 rats (Charles River; Wilmington, Mass.). The cells are plated in serum-free conditions (Neurobasal plus B-27 Supplements; Thermo-Fisher; Waltham, Mass.) onto glass coverslips coated with poly-ornithine and laminin as attachment factors. Cells are cultured overnight on the coated coverslips in a 37° C./5% CO2 tissue culture incubator prior to the initiation of the varying treatments.
On day 3 after plating, MPP+(Sigma Chemical; St. Louis, Mo.) is added to the medium at 20 μM final concentration. The cultures are allowed to continue for an additional 48 hours. At the end of the culture period, the cells are washed, and then fixed with 4% paraformaldehyde solution prior to permeabilization and blocking with 10% normal goat serum in PBS. […] Specimens are examined using fluorescence microscopy and the numbers of TH-positive neurons with non-pyknotic nuclei are counted in 6 to 8 high power fields per specimen.

Compound | Accumulation of phosphorylated forms of Tau protein [1] | Production of Aβ peptide [1] | BIII tubulin immunostaining in glaucoma eyes [2] | Penetration into ocular tissues [3] | Number of surviving TH-positive neurons [4]
C[C@H](N)C1CCN(S(=O)(=O)c2cccc3cnccc23)CC1 [BA-1076] | dose-dependent reduction in the accumulation of phosphorylated forms of Tau protein | reduced production of Aβ peptide | prevents the loss of BIII tubulin immunostaining | penetrate the tissue of the eye, including the CNS tissue of the retina | dose-dependent increase in the number of surviving neurons
C[C@H](N)C1CCN(S(=O)(=O)c2cccc3c(=O)[nH]ccc23)CC1 [BA-2057] | dose-dependent reduction in the accumulation of phosphorylated forms of Tau protein | reduced production of Aβ peptide | prevents the loss of BIII tubulin immunostaining | penetrate the tissue of the eye, including the CNS tissue of the retina; also recorded: the metabolite is better able to penetrate the optic nerve | dose-dependent increase in the number of surviving neurons
